Data taken from patent US4219566A, “Phenylglyoxylic acids and derivatives thereof” (Pfizer Inc., priority 1977, dated 1980).

Experiments:
[1] = system: pyruvate oxidation by diaphragm tissue from fat-fed rats; assay: Pyruvate oxidation (14C-pyruvate into CO2) by diaphragm tissue from fat-fed rats in vitro; assay type: cell-based; settings: Rattus norvegicus, read-out: % Stimulation of pyruvate oxidation; for activation at 2000 µM: 2.0 mM compound in medium
Experimental: (1) increase the oxidation of glucose and/or pyruvate by isolated rat muscle preparation in vitro;
(1) (a) Diaphragm tissue is obtained from rats fed on a high fat diet similar to `Diet B` described by Zaragoza and Felber (Horm. Metab. Res. 1970, 2, 323). Pyruvate oxidation by such tissue is assessed by measurement of the rate of incorporation of carbon-14 carbon-14-labelled pyruvate into carbon dioxide in vitro, as described by Bringolf (Eur. J. Biochem. 1972, 26, 360). The rate of pyruvate oxidation is depressed by 50-75% compared with that by diaphragm tissue from rats fed on a normal diet. When the compounds of the formula (I) are added to the medium, they are found to stimulate pyruvate oxidation by diaphragm tissue from fat-fed rats in a dose dependent manner.
The degree of stimulation by the compounds of the formula (I) at a concentration of 2.0 mM (unless otherwise stated) is shown in the following Table.

[2] = system: pyruvate dehydrogenase (PDH); assay: Proportion of active pyruvate dehydrogenase (PDHa/PDHt) in hearts of fat-fed rats after dosing in vivo; design: species or system rat; settings: heart of fat-fed rats
Experimental: (2) increase the proportion of the active form of the enzyme pyruvate dehydrogenase (PDH) in organs of animals (e.g. rats) in vivo; and
The ability of compounds of formula (I) to increase the proportion of the active form of the pyruvate dehydrogenase enzyme may be measured by the following test.
(2) Rats fed on a high fat diet as in test (1) (a), are treated either with placebo or with the compound of formula (I), by subcutaneous or intravenous injection or by oral administration, and at various times after treatment the rat hearts are removed and homogenized, under conditions which minimize changes in the proportion of the pyruvate dehydrogenase enzyme which is present in the active form, as described by Whitehouse and Randle (Biochem. J. 1973, 134, 651). The total amount of the enzyme present (PDHt) and the amount which is present in the active form (PDHa) are assessed by a method similar to that described by Taylor et al (J. Biol. Chem. 1973, 248, 73). The fat-feeding process is found to depress the ratio PDHa/PDHt from a normal value of about 0.7 to a value in the range from 0.05 to 0.2.

[3] = system: rats in which diabetes has been induced by treatment with streptozotocin; assay: Blood glucose levels in streptozotocin-diabetic rats; assay type: in vivo; settings: averages for 8 animals
Experimental: (4) decrease blood glucose levels in animals made diabetic by chemical lesion of the pancreas.
The ability of compounds of formula (I) to decrease blood glucose levels may be assessed by measuring their effect on blood glucose levels in rats in which diabetes has been induced by treatment with streptozotocin (85 mg./kg.). Four days after such treatment, a number of rats are given 1 millimole/kg. of the compound by intraperitoneal injection and a similar number are given placebo. The doses are repeated after a further 24 hours and 48 hours. Blood samples are taken from a tail vein immediately before each dosage (which is 2 hours after removal of the animals from food) and 1, 2 and 3 hours after the third dose.

[4] = system: fasted, closed-chest, anesthetized beagle dogs; assay: Myocardial blood flow and metabolism in electrically paced, anesthetized beagle dogs, with or without isoprenaline; assay type: in vivo; settings: 0.02 to 0.1 millimole/kg. intravenously; in the presence and absence of isoprenaline
Description: (3) reduce oxygen demand and affect the relative utilization of carbohydrate and lipid metabolites by the electrically-paced heart of an anesthetized dog in the presence or absence of an isoprenaline stimulus.
The ability of compounds of formula (I) to reduce oxygen demand and affect the relative utilization of carbohydrate and lipid metabolites in the heart may be assessed by measuring the effect of the compounds on myocardial blood flow and metabolism in fasted, closed-chest, anesthetized beagle dogs, with cardiac catheterization to enable simultaneous sampling of coronary sinus and arterial blood to be carried out. Coronary sinus blood flow is measured by the hydrogen gas clearance technique described by Aukland et al (Circulation Res. 1964, 14, 164). The heart is paced electrically at 155 beats/min. and recordings of hemodynamic parameters (blood pressure, left ventricular pressure and the first derivative of the latter) are made continuously. Control measurements of coronary blood flow are made and samples of blood taken at 40 min. intervals, both in an untreated animal and in the same animal dosed with an infusion of isoprenaline ([…].), which both stimulates cardiac contraction and increases plasma free fatty acid levels. The compound of formula (I) is then administered intravenously and measurements are made and samples taken again, 40 minutes and 90 minutes later. The blood samples from the artery and coronary sinus are analyzed for oxyhemoglobin, pyruvate and free fatty acid (FFA) content, differences between those of the arterial and coronary sinus blood, when multiplied by coronary blood flow, being a measure of oxygen consumption, pyruvate uptake and FFA uptake by the myocardium respectively.

[5] = dose 1.2 mM/kg subcutaneous, 1.5 hours, placebo ratio 0.11-0.24 in the same line

Compound	activation at 2000 µM [1] [%]	PDHa/PDHt ratio at 1.5 hours (Compound) [2, 5]	also measured
O=C(O)C(=O)c1ccc(Cl)cc1 [R=Cl, R1=H, R2=OH, p-chlorophenylglyoxylic acid]	71	–	–
Cc1cc(C(=O)C(=O)O)ccc1O [R=OH, R1=3-CH3, R2=OH, p-hydroxy-m-methylphenylglyoxylic acid]	21	0.31	–
CC(C)(C)CSc1ccc(C(=O)C(=O)O)cc1 [R=SCH2 . t-butyl, R1=H, R2=OH]	67	–	–
O=C(O)C(=O)c1ccccc1 [R=H, R1=H, R2=OH, phenylglyoxylic acid]	–	0.38	activation at 1000 µM ([1]; at 1mM): 25%
CCOC(=O)C(=O)c1ccc(O)cc1 [R=OH, R1=H, R2=OC2H5, ethyl p-hydroxyphenylglyoxylate]	83	–	–
CCOC(=O)C(=O)c1ccc(OCC)cc1 [R=OC2H5, R1=H, R2=OC2H5, ethyl p-ethoxyphenylglyoxylate]	–	0.35	–
O=C(O)C(=O)c1ccc(O)cc1 [p-hydroxyphenylglyoxylic acid]	104	0.28	blood glucose level ([3]; 3 hours after the third dose, 1 millimole/kg. intraperitoneal, placebo 369±9): 344±9 mg./100 ml.; blood glucose level ([3]; after 2 days of treatment, immediately before third dose, 1 millimole/kg. intraperitoneal daily, baseline 376±6, placebo 383±10): 358±9 mg./100 ml.; duration of increased myocardial pyruvate uptake after dosing [4]: at least 90 minutes; myocardial blood flow [4]: increased; myocardial oxygen consumption [4]: decreased; myocardial pyruvate uptake [4]: increases myocardial pyruvate uptake
CCCCSc1ccc(C(=O)C(=O)O)cc1 [R=S . n-butyl, R1=H, R2=OH, p-(n-butylthio)phenylglyoxylic acid]	113	–	–
O=C(O)C(=O)c1ccc(O)c(I)c1 [R=OH, R1=3-I, R2=OH, p-hydroxy-m-iodophenylglyoxylic acid]	55	–	–
COc1ccc(C(=O)C(=O)O)cc1Cl [R=OCH3, R1=3-Cl, R2=OH, m-chloro-p-methoxyphenylglyoxylic acid]	52	0.35	–
CCSc1ccc(C(=O)C(=O)O)cc1 [R=SC2H5, R1=H, R2=OH, p-(ethylthio)phenylglyoxylic acid]	158	0.73	–
Cc1ccc(C(=O)C(=O)O)cc1 [R=CH3, R1=H, R2=OH, p-methylphenylglyoxylic acid]	71	0.20	–
CSc1ccc(C(=O)C(=O)O)cc1 [R=SCH3, R1=H, R2=OH, p-(methylthio)phenylglyoxylic acid]	123	–	PDHa/PDHt ratio at 1.5 hours (Compound) ([2]; first of two doses shown only in drawing 5, subcutaneous, placebo 0.20): 0.47; PDHa/PDHt ratio at 1.5 hours (Compound) ([2]; second of two doses shown only in drawing 5, subcutaneous, placebo 0.12): 0.24
CCOc1ccc(C(=O)C(=O)O)cc1 [R=OC2H5, R1=H, R2=OH, p-ethoxyphenylglyoxylic acid]	91	0.56	–
COc1ccc(C(=O)C(=O)O)cc1 [R=OCH3, R1=H, R2=OH, p-methoxyphenylglyoxylic acid]	127	0.49	–
CC(C)Sc1ccc(C(=O)C(=O)O)cc1 [R=S . isopropyl, R1=H, R2=OH, p-(isopropylthio)phenylglyoxylic acid]	200	–	–
